# Assay results from patent publication US20110152267A1, “Compositions and Methods for Treating Hyperproliferative Disorders” (Texas Tech University System, priority 2009, published 2011).
# Legend:
# Type in all cases: cell-based, human
# [1] = test system: OE-33 esophageal adenocarcinoma cell line; test: DIMSCAN cytotoxicity, fenretinide + L-threo-sphinganines 3:1 (Example B19)
# Description: (§1) Cytotoxicity Assay—Once again, cytotoxicity is determined using the DIMSCAN assay system (R. Proffitt et al., Cytometry 24, 204-213 (1996); T. Frgala et al., Mol Cancer Ther. 6:886-97, 2007). The system employs digital imaging microscopy to quantify viable cells, which selectively accumulate fluorescein diacetate to become brightly fluorescent. The system is capable of measuring cytotoxicity over a 4-5 log dynamic range by quenching the residual fluorescence of dead and dying cells with eosin Y and quantifying the total fluorescence of viable cells using digital thresholding. Measured fluorescence is directly proportionate to the number of viable cells. A comparison of the total fluorescence of a drug-treated cell population to the fluorescence of a similar number of untreated cells yields a survival fraction. In brief, 2000 to 10,000 cells/well (depending on size and growth rates) are replicate plated into 60 wells of a 96-well tissue culture plate in 0.1 mL of whole medium and allowed to attach overnight. Drug(s) are then added in 0.05 mL of whole medium to the final concentrations indicated. Drugs (fenretinide, and various chain length L-threo-sphinganines) were tested both as single agents and in a 3:1 ratio of fenretinide:sphinganine. C18-L-threo-sphinganine, or “safingol,” was also tested and results shown for reference. There are 12 wells treated per drug concentration. Twelve wells receive drug vehicle-only to the appropriate final concentration and serve as controls for the plate. Cells are incubated for 96 hours at 37° C. in ambient air with 5% CO2. Fluorescein diacetate is then added to each well in 0.05 mL media to a final concentration of 8 microgram/mL. Cells are incubated for a further 15 minutes at 37° C. and 0.03 mL of 0.5% eosin Y is added to each well. Total fluorescence of viable cells is then measured by digital imaging microscopy. Results were graphed as the ratio of the fluoresecence of drug-treated wells to non-drug treated control wells (i.e., Survival Fraction). All tests were performed at least twice. Representative results are shown.
# (§2) The Combination Index (CI) is a term to describe mathematical modeling of the pharmacologic effects on cytotoxicity (cell death) of two drugs in combination based. Cytotoxic “synergy” is defined as a cell death affect which is greater than would be expected from a simple product of the single agent cytotoxicities alone (i.e. an “additive” effect). By Chou-Talalay analysis, a CI<0.9 on a Fraction Affected (“Fa”, i.e. fraction of cells killed) indicates synergy, with smaller numbers indicating greater synergy; a CI of 0.9-1.1 signifies an additive or near-additive effect; and a CI>1.1 means the drug combination is antagonistic.
# (§3) Fenretinide and L-threo-sphinganines tested in human esophageal adenocarcinoma (esophagus cancer) cell lines, OE-19 and OE-33.
# [2] = test system: OE-19 esophageal adenocarcinoma cell line; test: as above
# Description: as §1, §2, §3
# [3] = test system: RPMI-8226 Multiple Myeloma cell line; test: DIMSCAN cytotoxicity, fenretinide + L-threo-sphinganines 3:1 (Example B2); details: 96 h
# Description: as §1, §2
# Fenretinide and L-threo-sphinganines tested in human Multiple Myeloma (a cancer of the blood and bone marrow) cell line, RPMI-8226.
# [4] = test system: OVCAR-8 ovarian adenocarcinoma cell line; test: DIMSCAN cytotoxicity, fenretinide + L-threo-sphinganines 3:1 (Example B15); parameters: key to CI (Combination Index): Chou-Talalay CI: <0.9 synergy, 0.9-1.1 additive, >1.1 antagonism; details: 96 h
# Description: as §1, §2
# Fenretinide and L-threo-sphinganines tested in human ovarian adenocarcinoma (ovarian cancer) cell line, OVCAR-8.
# [5] = test system: A-549 lung adenocarcinoma cell line; test: DIMSCAN cytotoxicity, fenretinide + L-threo-sphinganines 3:1 (Example B13); details: 96 h
# Description: as §1, §2
# Fenretinide and L-threo-sphinganines tested in human lung adenocarcinoma (lung cancer) cell line, A-549.
# [6] = test system: A-172 Glioblastoma multiforme cell line; test: DIMSCAN cytotoxicity, fenretinide + L-threo-sphinganines 3:1 (Example B4); parameters: key to CI (Combination Index): Chou-Talalay CI: <0.9 synergy, 0.9-1.1 additive, >1.1 antagonism; details: 96 h
# Description: as §1, §2
# Fenretinide and L-threo-sphinganines tested in human Glioblastoma multiforme (brain cancer) cell line, A-172.
# [7] = test system: SJ-G2 Glioblastoma cell line; test: DIMSCAN cytotoxicity, fenretinide + L-threo-sphinganines 3:1 (Example B8); details: 96 h
# Description: as §1, §2
# Fenretinide and L-threo-sphinganines tested in human Glioblastoma (brain cancer) cell line, SJ-G2.
# [8] = 4-HPR 1.5 μM + L-threo-sphinganine 0.5 μM
# [9] = 4-HPR 3 μM + L-threo-sphinganine 1 μM
# [10] = 4-HPR 6 μM + L-threo-sphinganine 2 μM
# [11] = 4-HPR 9 μM + L-threo-sphinganine 3 μM
smiles,measurement,setting,value
"CCCCCCCCCCCCCCCC[C@H](O)[C@@H](N)CO [C19, (2S,3S)-2-amino-1,3-nonadecanediol]",CI,[1]; [8],1.9
same,Fa,[1]; [8],0.299
same,CI,[1]; [9],1.6
same,Fa,[1]; [9],0.582
same,CI,[1]; [10],0.6
same,Fa,[1]; [10],0.951
same,CI,[1]; [11],0.3
same,Fa,[1]; [11],0.989
same,CI,[2]; [8],1.0
same,Fa,[2]; [8],0.094
same,CI,[2]; [9],1.6
same,Fa,[2]; [9],0.109
same,CI,[2]; [10],1.6
same,Fa,[2]; [10],0.173
same,CI,[2]; [11],1.1
same,Fa,[2]; [11],0.272
same,CI (Combination Index),[3]; [8],0.9
same,Fa (fraction affected),[3]; [8],0.649
same,CI (Combination Index),[3]; [9],0.9
same,Fa (fraction affected),[3]; [9],0.895
same,CI (Combination Index),[3]; [10],0.5
same,Fa (fraction affected),[3]; [10],0.996
same,CI (Combination Index),[3]; [11],>0.1
same,Fa (fraction affected),[3]; [11],1.000
same,CI (Combination Index),[4]; [8],0.1
same,Fa (fraction affected),[4]; [8],0.787
same,CI (Combination Index),[4]; [9],0.1
same,Fa (fraction affected),[4]; [9],0.881
same,CI (Combination Index),[4]; [10],0.1
same,Fa (fraction affected),[4]; [10],0.943
same,CI (Combination Index),[4]; [11],0.1
same,Fa (fraction affected),[4]; [11],0.978
same,CI (Combination Index),[5]; [8],1.6
same,Fa (fraction affected),[5]; [8],0.000
same,CI (Combination Index),[5]; [9],0.6
same,Fa (fraction affected),[5]; [9],0.007
same,CI (Combination Index),[5]; [10],0.7
same,Fa (fraction affected),[5]; [10],0.159
same,CI (Combination Index),[5]; [11],0.9
same,Fa (fraction affected),[5]; [11],0.413
same,CI (Combination Index),[6]; [8],84.4
same,Fa (fraction affected),[6]; [8],0.086
same,CI (Combination Index),[6]; [9],8.1
same,Fa (fraction affected),[6]; [9],0.578
same,CI (Combination Index),[6]; [10],>0.1
same,Fa (fraction affected),[6]; [10],0.998
same,CI (Combination Index),[6]; [11],>0.1
same,Fa (fraction affected),[6]; [11],1.000
same,CI (Combination Index),[7]; [8],0.7
same,Fa (fraction affected),[7]; [8],0.389
same,CI (Combination Index),[7]; [9],0.8
same,Fa (fraction affected),[7]; [9],0.700
same,CI (Combination Index),[7]; [10],0.6
same,Fa (fraction affected),[7]; [10],0.975
same,CI (Combination Index),[7]; [11],0.7
same,Fa (fraction affected),[7]; [11],0.983
"CCCCCCCCCCCCCCCCC[C@H](O)[C@@H](N)CO [C20, (2S,3S)-2-amino-1,3-icosanediol]",CI,[1]; [8],1.9
same,Fa,[1]; [8],0.255
same,CI,[1]; [9],1.9
same,Fa,[1]; [9],0.445
same,CI,[1]; [10],0.8
same,Fa,[1]; [10],0.883
same,CI,[1]; [11],0.2
same,Fa,[1]; [11],0.993
same,CI,[2]; [8],3.2
same,Fa,[2]; [8],0.352
same,CI,[2]; [9],6.6
same,Fa,[2]; [9],0.438
same,CI,[2]; [10],>>1
same,Fa,[2]; [10],0.708
same,CI,[2]; [11],>>1
same,Fa,[2]; [11],0.771
same,CI (Combination Index),[3]; [8],1.0
same,Fa (fraction affected),[3]; [8],0.583
same,CI (Combination Index),[3]; [9],1.1
same,Fa (fraction affected),[3]; [9],0.867
same,CI (Combination Index),[3]; [10],0.9
same,Fa (fraction affected),[3]; [10],0.996
same,CI (Combination Index),[3]; [11],0.3
same,Fa (fraction affected),[3]; [11],1
same,CI (Combination Index),[4]; [8],0.5
same,Fa (fraction affected),[4]; [8],0.259
same,CI (Combination Index),[4]; [9],0.6
same,Fa (fraction affected),[4]; [9],0.366
same,CI (Combination Index),[4]; [10],0.8
same,Fa (fraction affected),[4]; [10],0.453
same,CI (Combination Index),[4]; [11],0.2
same,Fa (fraction affected),[4]; [11],0.956
same,CI (Combination Index),[5]; [8],2.1
same,Fa (fraction affected),[5]; [8],0.000
same,CI (Combination Index),[5]; [9],4.1
same,Fa (fraction affected),[5]; [9],0.000
same,CI (Combination Index),[5]; [10],1.1
same,Fa (fraction affected),[5]; [10],0.017
same,CI (Combination Index),[5]; [11],1.1
same,Fa (fraction affected),[5]; [11],0.499
same,CI (Combination Index),[6]; [8],2.8
same,Fa (fraction affected),[6]; [8],0.039
same,CI (Combination Index),[6]; [9],1.0
same,Fa (fraction affected),[6]; [9],0.594
same,CI (Combination Index),[6]; [10],0.6
same,Fa (fraction affected),[6]; [10],0.983
same,CI (Combination Index),[6]; [11],>0.1
same,Fa (fraction affected),[6]; [11],1.000
same,CI (Combination Index),[7]; [8],0.9
same,Fa (fraction affected),[7]; [8],0.408
same,CI (Combination Index),[7]; [9],0.8
same,Fa (fraction affected),[7]; [9],0.773
same,CI (Combination Index),[7]; [10],1.1
same,Fa (fraction affected),[7]; [10],0.896
same,CI (Combination Index),[7]; [11],0.2
same,Fa (fraction affected),[7]; [11],0.999
